These results are taken from patent US4591573A (priority 1983, dated 1986).

Structures can show the parent of a compound that is named as a salt.

The subject of series [1] is antibody to L-hyoscyamine (antiserum). It is filed as binding, New Zealand white rabbit.
For series [2] the following is noted: in vivo; cited from earlier work.
The next series has as its system frogs. The note with it: in vivo; cited from earlier work.
Another series has as its system children (flush). The note with it: in vivo, po; cited from earlier work.
Series [3] relates to peripheral parasympathetic nervous system. The following applies: in vivo; cited from earlier work.
The test system of another series is human eyes. The note with it: in vivo; cited from earlier work.
In another series the test system is spinal cord. The following applies: dog, in vivo; cited from earlier work.
The subject of a further series is mice. The following applies: mouse, in vivo; cited from earlier work.
For series [4], the system named is antibody of Wurzeburger radioimmunoassay. The note with it: cited from earlier work.
Series [5] deals with antibody of Virtanen radioimmunoassay. The note with it: cited from earlier work.
The test system of a further series is patients. The following applies: human, in vivo; cited from earlier work.
The conditions of series [6]: in vivo; cited from earlier work. The source holds these as a separate data set.

Take `CN1[C@@H]2CC[C@H]1C[C@@H](OC(=O)C(O)c1ccccc1)C2` (mixture of isomers) [Homatropine, dl-homatropine-HBr]: in series [1], the “recognition by / cross-reaction with the antibody” value (shortened to “recognition by / cross-reaction”) is listed as “recognized by the antibody”.
Take `CN1[C@@H]2C[C@@H](OC(=O)[C@H](CO)c3ccccc3)C[C@H]1[C@@H]1O[C@@H]12` [Scopolamine, 1-scopolamine-HCl]: the “% Cross-reactivity” value in series [1] is 0%.
Take `CN1[C@@H]2CC[C@H]1C[C@@H](OC(=O)C(CO)c1ccccc1)C2` (stereo partly drawn) [atropine sulfate]: where the note is “after 3 hours”, the “serum level of 1-hyoscyamine after 3 hours” value is on record as “approximately 50%”. For the same compound, under “in vivo”, the serum level course entry is “steady decline curve after 40 minutes”.
Take `CN1[C@@H]2CC[C@H]1C[C@@H](OC(=O)[C@@H](CO)c1ccccc1)C2` [D-hyoscyamine]: in series [2], the “rate of destruction compared with L-form” value is “destroyed more slowly than the L-form”. In addition, in the series with frogs, the “effect on spinal cord” value is on record as “an excitant to the spinal cord”. Also, the “cross reaction / cross-reactivity with antibody of the invention” value in series [1] was “about 37%”. For the same compound, the “quantity required for flush, as multiple” value in the series on children (flush) is 20-40 times. Further, in series [3], the “peripheral activity” value is “peripherally inactive”.
As for `CN1[C@@H]2CC[C@H]1C[C@@H](OC(=O)[C@H](CO)c1ccccc1)C2` [L-hyoscyamine sulphate], in the series on human eyes, the “action on human eyes” value is 0.25% solution, can replace a 1% solution of atropine sulphate.
With `CN1[C@@H]2CC[C@H]1C[C@@H](OC(=O)[C@H](CO)c1ccccc1)C2` [L-hyoscyamine], the “effect on excitability of the spinal cord” value in the series with spinal cord is listed as “no effect”. In the series on mice, the narcotization result is “not affected”. For the same compound, the “Specificity (percentage of cross reactivity), Wurzeburger” value in series [4] is recorded as 2.4%. Besides, the “Specificity (cross-reactivity), Virtanen” value in series [5] is 100%. Moreover, in series [1], the “% Cross-reactivity” value is 100% and the “Specificity (cross-reactivity), Verma” value is listed as 100%. In the series with children (flush), the “quantity needed for flush” value is listed as “Less quantities of L-hyoscyamine were needed than atropine”. In series [3], the “peripheral activity” value is reported as “the most potent parasympathetic antispasmodic known”.
With `O=C(O)C(CO)c1ccccc1` (racemic) [Tropic Acid, dl-tropic acid], in series [1], the “% Cross-reactivity” value was 0% and the “recognition by / cross-reaction” value is “did not cross-react with the antibody”.
The matching figures for `CN1[C@@H]2CC[C@H]1C[C@@H](O)C2` [Tropine, tropine]: 0% and “did not cross-react with the antibody”.
In the case of `CN1[C@@H]2CC[C@H]1C[C@@H](OC(=O)C(CO)c1ccccc1)C2` (mixture of isomers) [atropine, D,L-hyoscyamine], in the series with spinal cord, the “effect on excitability of the spinal cord” value is “increase the excitability of the spinal cord”. For the same compound, the complications result in the series on patients was “tachycardia, lethal arrhythmias and/or extension of the myocardial infarction”. For the same compound, the narcotization entry with mice is on record as “became narcotized”. Moreover, the “Specificity (percentage of cross reactivity), Wurzeburger” value in series [4] is recorded as 100%. In addition, in series [5], the “Specificity (cross-reactivity), Virtanen” value was 100%. Further, in [1], the “% Cross-reactivity” value came out at 30%; the “Specificity (cross-reactivity), Verma” value is 37%; the “cross reaction / cross-reactivity with antibody of the invention” value is recorded as “about 37%”; the “recognition by / cross-reaction” value is “recognized by the antibody”. Besides, in [6], the cycloplegic effect result is “exert a cycloplegic effect” and the effect on thermoregulation entry was “hinders thermoregulation”.
